Assay results reported in paper PMC10375476, “Feedback Inhibition of Bacterial Nucleotidyltransferases by Rare Nucleotide L-Sugars Restricts Substrate Promiscuity” (Journal of the American Chemical Society, 2023).

Assays:
[1] = target: SALTY RmlA (Salmonella enterica, UniProt P26393); assay: inhibition of reconstituted RmlA activity; assay type: biochemical
[2] = target: Pa RmlA (Pseudomonas aeruginosa, UniProt Q9HU22); assay: inhibition of reconstituted RmlA activity; assay type: biochemical
[3] = target: E. coli RmlA (Escherichia coli, UniProt P37744); assay: inhibition of reconstituted RmlA activity; assay type: biochemical
Chain of E. coli RmlA (P37744 whole entry): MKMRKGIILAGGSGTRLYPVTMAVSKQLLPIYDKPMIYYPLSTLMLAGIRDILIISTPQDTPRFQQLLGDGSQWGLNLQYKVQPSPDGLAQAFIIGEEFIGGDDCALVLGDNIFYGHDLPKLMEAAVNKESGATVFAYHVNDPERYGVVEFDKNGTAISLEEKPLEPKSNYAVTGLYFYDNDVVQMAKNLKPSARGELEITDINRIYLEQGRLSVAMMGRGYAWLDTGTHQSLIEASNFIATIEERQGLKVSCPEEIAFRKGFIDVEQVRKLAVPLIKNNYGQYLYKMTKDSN

[4] = target: Mtb RmlA (Mycobacterium tuberculosis, UniProt P9WH13); assay: biochemical
Chain of Mtb RmlA (P9WH13 whole entry): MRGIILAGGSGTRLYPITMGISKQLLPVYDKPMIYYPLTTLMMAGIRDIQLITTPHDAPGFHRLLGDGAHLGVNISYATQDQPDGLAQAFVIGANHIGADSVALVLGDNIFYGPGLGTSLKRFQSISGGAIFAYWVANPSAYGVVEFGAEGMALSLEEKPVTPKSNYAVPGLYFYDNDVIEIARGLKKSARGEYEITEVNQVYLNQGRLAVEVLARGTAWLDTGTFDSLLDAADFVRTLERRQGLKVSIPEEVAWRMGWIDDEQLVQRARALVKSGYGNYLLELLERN

Chain of SALTY RmlA (P26393 whole entry): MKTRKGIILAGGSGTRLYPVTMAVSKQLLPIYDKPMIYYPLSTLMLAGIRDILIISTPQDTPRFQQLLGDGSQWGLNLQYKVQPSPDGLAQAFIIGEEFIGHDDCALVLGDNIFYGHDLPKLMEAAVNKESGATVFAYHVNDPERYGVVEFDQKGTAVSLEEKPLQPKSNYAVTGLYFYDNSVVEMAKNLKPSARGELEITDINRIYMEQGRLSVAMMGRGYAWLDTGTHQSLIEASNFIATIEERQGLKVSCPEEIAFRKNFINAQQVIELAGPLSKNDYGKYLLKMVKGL
Chain of Pa RmlA (Q9HU22 1-293): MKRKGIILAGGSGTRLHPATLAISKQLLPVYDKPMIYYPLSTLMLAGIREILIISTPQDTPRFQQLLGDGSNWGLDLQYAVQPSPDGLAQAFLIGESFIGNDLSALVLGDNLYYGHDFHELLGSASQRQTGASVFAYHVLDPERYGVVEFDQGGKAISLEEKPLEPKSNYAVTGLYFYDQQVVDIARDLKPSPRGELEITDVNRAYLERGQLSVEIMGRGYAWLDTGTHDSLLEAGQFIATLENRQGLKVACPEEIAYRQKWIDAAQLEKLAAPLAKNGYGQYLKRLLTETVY

| SMILES | IC50 [1] | IC50 [2] | IC50 [3] | IC50 [4] |
| --- | --- | --- | --- | --- |
| Cc1cn([C@H]2C[C@H](O)[C@@H](COP(=O)(O)OP(=O)(O)O[C@H]3O[C@@H](C)[C@H](O)[C@@H](O)[C@H]3O)O2)c(=O)[nH]c1=O [compound 1, dTDP-β-L-Rha] | 109 µM | 25.1 µM | 137 µM | 65.7 µM |
| Cc1cn([C@H]2C[C@H](O)[C@@H](COP(=O)(O)OP(=O)(O)O[C@@H]3O[C@@H](C)[C@H](O)[C@@H](O)[C@H]3O)O2)c(=O)[nH]c1=O [compound 10, dTDP-α-L-Rha (α-anomer 10)] | > 500 µM | 250 µM | > 500 µM | 500 µM |
| C[C@@H]1O[C@H](OP(=O)(O)OP(=O)(O)OC[C@H]2O[C@@H](n3ccc(=O)[nH]c3=O)[C@H](O)[C@@H]2O)[C@H](O)[C@H](O)[C@H]1O [compound 12, UDP-β-L-Rha] |  | 362 µM |  |  |
| Cc1cn([C@H]2C[C@H](O)[C@@H](COP(=O)(O)OP(=O)(O)O[C@H]3O[C@@H](C)[C@@H](O)[C@@H](O)[C@H]3O)O2)c(=O)[nH]c1=O [compound 2, dTDP-β-L-6dTal] |  | 312 µM |  |  |
| Cc1cn([C@H]2C[C@H](O)[C@@H](COP(=O)(O)OP(=O)(O)O[C@H]3O[C@@H](CO)[C@H](O)[C@@H](O)[C@H]3O)O2)c(=O)[nH]c1=O [compound 11, dTDP-β-L-Man] | > 500 µM | 376 µM | > 500 µM | 458 µM |
